Series [1] can be described thus: Release of the active substance in water (USP 24). In kind it is physicochemical. The following applies: for Released torasemide: water, USP 24, 37° C., 50 rpm, 1000 ml. As to the method: The amorphous torasemide modification as such is suitable for the preparation of pharmaceutical prepartions having short-term or prolonged actions. The amorphous torasemide modification prepared according to Example 1 of the present invention was subjected to the test of the release of the active substance in water at a temperature of 37° C. (USP 24) and the results are represented in Table 1. [table]

A short description of series [2]: Solid-state stability of the amorphous modification (conversion into crystal modifications). It is filed as physicochemical. The following applies: normal storage conditions, at crushing and compressing.

SMILES strings stand for the structures.

Regarding `Cc1cccc(Nc2ccncc2S(=O)(=O)NC(=O)NC(C)C)c1` [amorphous torasemide modification, N-(1-methylethylaminocarbonyl)-4-(3-methyl-phenylamino)-3-pyridinesulfonamide], in series [1] (in water (USP 24), same medium), the “Release profile in comparison with the known crystal torasemide modifications” value is on record as “slower release”. The Released torasemide in series [1] (time 0 minutes) worked out at 0%; in series [1] (time 15 minutes) it was 6.8%; in series [1] (time 30 minutes), 10.2%; in series [1] (time 45 minutes) it was 13.0%; in series [1] (time 60 minutes), 15.9%; in series [1] (time 90 minutes), 20.4%. For the same compound, in series [1] (time 120 minutes), the Released torasemide came to 24.9%. The “Stability (no conversion into crystal modification I, II or III)” value in series [2] is listed as “stable”.

For the origin of these results see patent US6767917B1, “Amorphous torasemide modification” (Pliva d.d., priority 2000, dated 2004).
